Laboratory results: US20250011296A1, “MODULATORS OF MOLECULAR TARGETS EXPRESSED IN METABOLIC AND INFLAMMATORY DISORDERS” (Ohio State Innovation Foundation, priority 2021, published 2025)

Columns and labels:
PEPCK expression = experiment: Larval diabetic zebrafish assay, Western blot of PEPCK; assay type: in vivo; details: duplicate Western blot (FIG. 10), diabetic zebrafish larvae, 10 μM
Experimental: (§1) Following isolation, derivatization, and analysis of compounds 41-48 through the in vitro panel of assays, the mace natural products and licarin A derivatives were investigated in the larval diabetic zebrafish assay for potential antidiabetic activity. Western blot analysis of zebrafish expression levels for glycated hemoglobin, metabolic enzymes, and molecular targets NFκB and PPAR-γ was performed to evaluate potential lead improvement and to discover possible mechanisms of action.
Wild-type zebrafish were sorted into 24-well microplates with 10 fish per well for a four-phase treatment cycle. At 72 hpf, type 2 diabetes was induced by administering 0.5 mg/mL alloxan in fish water for percutaneous absorption. After three hours of alloxan treatment, phase two of the treatment cycle was initiated by administering 10 μM doses of natural product compounds 41-43 (FIG. 4) or derivatives 45-48 (FIG. 6) with 0.01% DMSO in system water. At 78 hpf, the incubation solution was changed to 10 mg/ml D-glucose for 30 minutes, followed by a phase-four rinse in fresh system w Following the four-phase treatment cycle, zebrafish treatment groups were snap frozen in microcentrifuge tubes on dry ice, stored overnight at −80° C., thawed, and homogenized with 2 μL PBS per animal. Following centrifugation (60 minutes at 4° C. and 17,000 rpm), protein content of the homogenate supernatant was determined using the Pierce BCA Protein Assay kit (Pierce Biotechnology). Homogenates were analyzed by Western blot with equal amounts of total protein (20 μg) in each sample and using 4×LDS loading buffer (NuPAGE Life Technologies). The immunoblot samples were heated at 95° C. for 5 minutes and loaded onto NuPAGE Bis-Tris 4-12% gradient SDS-PAGE gels.
Electrophoresis was performed with NuPAGE MES SDS Running Buffer and using the XCell SureLock Mini-Cell Electrophoresis System (Life Technologies). Proteins separated on the gel were transferred to a PVDF membrane using TBST buffer. The blots were blocked in 3% BSA in TBST and subsequently probed overnight with primary antibodies (1:1000 in 1% BSA in TBST) against each target of interest. Following TBST rinses, secondary HRP-conjugated antibodies (1:2000) were applied to the membrane for 60 minutes. The HRP conjugated antibodies were detected using SuperSignal West Femto chemiluminescent substrate (Pierce Biotechnology) and immunoblot images were captured using the luminometer and Lumi Analyst 3.0 software.
(§2) Band densities were determined using ImageJ Gel Analysis to determine expression levels of each protein of interest. Expression levels of HbA1C, PPAR-γ, and NFκB were organized into a bar graphs (FIG. 5) with band densities calculated in comparison to the housekeeping gene β-actin, normalized to the untreated diabetic group (B) of zebrafish. […].

GLUT-4 expression = experiment: Larval diabetic zebrafish assay, Western blot of GLUT-4; assay type: in vivo; details: duplicate Western blot (FIG. 11), diabetic zebrafish larvae, 10 μM
Experimental: as §1
Wild-type zebrafish were sorted into 24-well microplates with 10 fish per well for a four-phase treatment cycle. At 72 hpf, type 2 diabetes was induced by administering 0.5 mg/mL alloxan in fish water for percutaneous absorption. After three hours of alloxan treatment, phase two of the treatment cycle was initiated by administering 10 μM doses of natural product compounds 41-43 (FIG. 4) or derivatives 45-48 (FIG. 6) with 0.01% DMSO in system water. […] Following centrifugation (60 minutes at 4° C. and 17,000 rpm), protein content of the homogenate supernatant was determined using the Pierce BCA Protein Assay kit (Pierce Biotechnology). Homogenates were analyzed by Western blot with equal amounts of total protein (20 μg) in each sample and using 4×LDS loading buffer (NuPAGE Life Technologies). […]
Electrophoresis was performed with NuPAGE MES SDS Running Buffer and using the XCell SureLock Mini-Cell Electrophoresis System (Life Technologies). […] The HRP conjugated antibodies were detected using SuperSignal West Femto chemiluminescent substrate (Pierce Biotechnology) and immunoblot images were captured using the luminometer and Lumi Analyst 3.0 software.
as §2

For `C/C=C/c1cc(OC)c2c(c1)[C@H](C)[C@@H](c1ccc(O)c(OC)c1)O2` [Compound 42, licarin A], the “PEPCK expression (band density)” value (PEPCK expression) was “retained low PEPCK expression” and the “GLUT-4 expression (band density)” value (GLUT-4 expression) was “significantly increased capacities for glucose uptake”.
